Test results: PubChem BioAssay (NCI)
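Results reflect a 48-hour exposure of cells in 96-well plates to compound at five concentrations. TGI is the concentration that stops growth completely.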

Columns and labels:
Test in all cases: inhibition of tumour cell growth, NCI panel, 48 h
SNB-78 CNS = tested on: SNB-78 CNS
HOP-18 NSCLC = tested on: HOP-18 NSCLC
HOP-92 NSCLC = tested on: HOP-92 NSCLC
ACHN renal = tested on: ACHN renal
A549 NSCLC = tested on: A549 NSCLC
SR leukemia = tested on: SR leukemia
HCT-15 colon = tested on: HCT-15 colon
DMS 273 small cell lung = tested on: DMS 273 small cell lung
U251 CNS = tested on: U251 CNS
SF-295 CNS = tested on: SF-295 CNS
NCI-H23 lung = tested on: NCI-H23 lung
LOX IMVI melanoma = tested on: LOX IMVI melanoma
KM20L2 colon = tested on: KM20L2 colon
MOLT-4 leukemia = tested on: MOLT-4 leukemia
SNB-75 CNS = tested on: SNB-75 CNS
SNB-19 CNS = tested on: SNB-19 CNS
SK-MEL-5 melanoma = tested on: SK-MEL-5 melanoma
HT29 colon = tested on: HT29 colon
A498 renal = tested on: A498 renal
OVCAR-5 ovarian = tested on: OVCAR-5 ovarian
SF-539 CNS = tested on: SF-539 CNS
HCT-116 colon = tested on: HCT-116 colon
OVCAR-8 ovarian = tested on: OVCAR-8 ovarian
SW-620 colon = tested on: SW-620 colon
NCI-H226 lung = tested on: NCI-H226 lung
CAKI-1 renal = tested on: CAKI-1 renal
COLO 205 colon = tested on: COLO 205 colon
SK-MEL-2 melanoma = tested on: SK-MEL-2 melanoma
UACC-257 melanoma = tested on: UACC-257 melanoma
KM12 colon = tested on: KM12 colon
SN12C renal = tested on: SN12C renal
HL-60(TB) leukemia = tested on: HL-60(TB) leukemia
CCRF-CEM leukemia = tested on: CCRF-CEM leukemia
NCI-H460 lung = tested on: NCI-H460 lung
M14 melanoma = tested on: M14 melanoma
EKVX NSCLC = tested on: EKVX NSCLC
DLD-1 colon = tested on: DLD-1 colon
UO-31 renal = tested on: UO-31 renal
MALME-3M melanoma = tested on: MALME-3M melanoma
DMS 114 small cell lung = tested on: DMS 114 small cell lung
SF-268 CNS = tested on: SF-268 CNS
K-562 leukemia = tested on: K-562 leukemia
OVCAR-4 ovarian = tested on: OVCAR-4 ovarian
RXF-631 renal = tested on: RXF-631 renal
SK-MEL-28 melanoma = tested on: SK-MEL-28 melanoma
RXF 393 renal = tested on: RXF 393 renal
RPMI-8226 leukemia = tested on: RPMI-8226 leukemia
XF 498 CNS = tested on: XF 498 CNS
TK-10 renal = tested on: TK-10 renal
IGROV1 ovarian = tested on: IGROV1 ovarian
OVCAR-3 ovarian = tested on: OVCAR-3 ovarian
786-0 renal = tested on: 786-0 renal
M19-MEL melanoma = tested on: M19-MEL melanoma
SK-OV-3 ovarian = tested on: SK-OV-3 ovarian
LXFL 529 NSCLC = tested on: LXFL 529 NSCLC
HCC-2998 colon = tested on: HCC-2998 colon
UACC-62 melanoma = tested on: UACC-62 melanoma
NCI-H522 lung = tested on: NCI-H522 lung
HOP-62 NSCLC = tested on: HOP-62 NSCLC

COc1nc(NC2OCC(OC(C)=O)C(OC(C)=O)C2OC(C)=O)c(N=C(C)C(C)=O)c(=O)n1C (stereo not drawn) was tested, and the TGI (SNB-78 CNS) was over 100 µM, the TGI (HOP-18 NSCLC) was over 100 µM and the TGI (HOP-92 NSCLC) was over 100 µM. For the same compound, the TGI (ACHN renal) was over 100 µM, the TGI (A549 NSCLC) was over 100 µM and the TGI (SR leukemia) was over 100 µM. It also gave a TGI (HCT-15 colon) of over 100 µM, a TGI (DMS 273 small cell lung) of over 100 µM and a TGI (U251 CNS) of over 100 µM. For the same compound, the TGI (SF-295 CNS) was over 100 µM, the TGI (NCI-H23 lung) was over 100 µM and the TGI (LOX IMVI melanoma) was over 100 µM. For the same compound, the TGI (KM20L2 colon) was over 100 µM, the TGI (MOLT-4 leukemia) was over 100 µM and the TGI (SNB-75 CNS) was over 100 µM. The TGI (SNB-19 CNS) was over 100 µM, the TGI (SK-MEL-5 melanoma) was over 100 µM and the TGI (HT29 colon) was over 100 µM. For the same compound, the TGI (A498 renal) was over 100 µM, the TGI (OVCAR-5 ovarian) was over 100 µM and the TGI (SF-539 CNS) was over 100 µM. For the same compound, the TGI (HCT-116 colon) was over 100 µM, the TGI (OVCAR-8 ovarian) was over 100 µM and the TGI (SW-620 colon) was over 100 µM. For the same compound, the TGI (NCI-H226 lung) was over 100 µM, the TGI (CAKI-1 renal) was over 100 µM and the TGI (COLO 205 colon) was over 100 µM. It also gave a TGI (SK-MEL-2 melanoma) of over 100 µM, a TGI (UACC-257 melanoma) of over 100 µM and a TGI (KM12 colon) of over 100 µM. For the same compound, the TGI (SN12C renal) was over 100 µM, the TGI (HL-60(TB) leukemia) was over 100 µM and the TGI (CCRF-CEM leukemia) was over 100 µM. It also gave a TGI (NCI-H460 lung) of over 100 µM, a TGI (M14 melanoma) of over 100 µM and a TGI (EKVX NSCLC) of over 100 µM. The TGI (DLD-1 colon) was over 100 µM, the TGI (UO-31 renal) was over 100 µM and the TGI (MALME-3M melanoma) was over 100 µM. It also gave a TGI (DMS 114 small cell lung) of over 100 µM, a TGI (SF-268 CNS) of over 100 µM and a TGI (K-562 leukemia) of over 100 µM. It also gave a TGI (OVCAR-4 ovarian) of over 100 µM, a TGI (RXF-631 renal) of over 100 µM and a TGI (SK-MEL-28 melanoma) of over 100 µM. For the same compound, the TGI (RXF 393 renal) was over 100 µM, the TGI (RPMI-8226 leukemia) was over 100 µM and the TGI (XF 498 CNS) was over 100 µM. For the same compound, the TGI (TK-10 renal) was over 100 µM and the TGI (IGROV1 ovarian) was over 100 µM.

Compound Cc1ccc(S(=O)(=O)c2ccccn2)cc1 has a TGI (SNB-78 CNS) of over 100 µM, a TGI (HOP-18 NSCLC) of over 100 µM and a TGI (HOP-92 NSCLC) of over 100 µM. The TGI (ACHN renal) was over 100 µM, the TGI (OVCAR-3 ovarian) was over 100 µM and the TGI (786-0 renal) was over 100 µM. For the same compound, the TGI (M19-MEL melanoma) was over 100 µM, the TGI (A549 NSCLC) was over 100 µM and the TGI (SK-OV-3 ovarian) was over 100 µM. The TGI (HCT-15 colon) was over 100 µM, the TGI (DMS 273 small cell lung) was over 100 µM and the TGI (U251 CNS) was over 100 µM. It also gave a TGI (SF-295 CNS) of over 100 µM, a TGI (NCI-H23 lung) of over 100 µM and a TGI (LOX IMVI melanoma) of over 100 µM. For the same compound, the TGI (LXFL 529 NSCLC) was over 100 µM, the TGI (KM20L2 colon) was over 100 µM and the TGI (MOLT-4 leukemia) was over 100 µM. The TGI (SNB-75 CNS) was over 100 µM, the TGI (SNB-19 CNS) was over 100 µM and the TGI (SK-MEL-5 melanoma) was over 100 µM. It also gave a TGI (HCC-2998 colon) of over 100 µM, a TGI (HT29 colon) of over 100 µM and a TGI (A498 renal) of over 100 µM. For the same compound, the TGI (OVCAR-5 ovarian) was 97.2 µM, the TGI (SF-539 CNS) was over 100 µM and the TGI (HCT-116 colon) was over 100 µM. For the same compound, the TGI (OVCAR-8 ovarian) was over 100 µM, the TGI (UACC-62 melanoma) was over 100 µM and the TGI (SW-620 colon) was over 100 µM. For the same compound, the TGI (NCI-H226 lung) was over 100 µM, the TGI (CAKI-1 renal) was over 100 µM and the TGI (NCI-H522 lung) was over 100 µM. For the same compound, the TGI (COLO 205 colon) was over 100 µM, the TGI (SK-MEL-2 melanoma) was over 100 µM and the TGI (UACC-257 melanoma) was over 100 µM. For the same compound, the TGI (KM12 colon) was over 100 µM, the TGI (SN12C renal) was over 100 µM and the TGI (HL-60(TB) leukemia) was over 100 µM. For the same compound, the TGI (CCRF-CEM leukemia) was over 100 µM, the TGI (NCI-H460 lung) was over 100 µM and the TGI (M14 melanoma) was over 100 µM. For the same compound, the TGI (HOP-62 NSCLC) was over 100 µM, the TGI (EKVX NSCLC) was over 100 µM and the TGI (DLD-1 colon) was over 100 µM. It also gave a TGI (UO-31 renal) of over 100 µM, a TGI (MALME-3M melanoma) of over 100 µM and a TGI (DMS 114 small cell lung) of over 100 µM. For the same compound, the TGI (SF-268 CNS) was over 100 µM, the TGI (K-562 leukemia) was over 100 µM and the TGI (OVCAR-4 ovarian) was over 100 µM. It also gave a TGI (RXF-631 renal) of over 100 µM, a TGI (SK-MEL-28 melanoma) of over 100 µM and a TGI (RXF 393 renal) of over 100 µM. It also gave a TGI (RPMI-8226 leukemia) of over 100 µM, a TGI (XF 498 CNS) of over 100 µM and a TGI (TK-10 renal) of over 100 µM. For the same compound, the TGI (IGROV1 ovarian) was over 100 µM.
